Measured values: patent US8470810B2, “Heterocyclic compounds suitable for treating disorders that respond to modulation of the dopamine D3 receptor” (Abbott GmbH & Co. KG, priority 2004, dated 2013)

Columns and labels:
[1] = target: T1, human dopamine D3 receptors (Homo sapiens, UniProt P35462); experiment: Dopamine D3 receptor binding, displacement of [125I]-iodosulpride; conditions: for Ki: membranes of HEK-293 cells stably expressing human D3, 0.1 nM [125I]-iodosulpride, 25° C., 60 minutes; for Ki(D2)*/Ki(D3)*: selectivity ratio of the receptor binding constants D2 over D3
T1 construct: expressed in transfected cells
T1 sequence (P35462 whole entry): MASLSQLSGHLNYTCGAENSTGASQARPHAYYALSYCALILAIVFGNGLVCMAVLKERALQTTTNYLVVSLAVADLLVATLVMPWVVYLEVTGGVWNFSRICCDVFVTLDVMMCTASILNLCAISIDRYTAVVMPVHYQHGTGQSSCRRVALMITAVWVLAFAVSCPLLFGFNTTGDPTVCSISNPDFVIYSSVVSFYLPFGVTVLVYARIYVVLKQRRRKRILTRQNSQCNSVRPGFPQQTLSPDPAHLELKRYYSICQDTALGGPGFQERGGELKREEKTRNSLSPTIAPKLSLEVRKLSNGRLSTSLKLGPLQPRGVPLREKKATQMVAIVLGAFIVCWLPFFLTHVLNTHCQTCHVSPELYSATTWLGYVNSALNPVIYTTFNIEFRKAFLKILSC
Experimental: (§1) The substance to be tested was either dissolved in methanol/Chremophor® (BASFAG) or in dimethyl sulfoxide and then diluted with water to the desired concentration.
(§2) Each assay mixture was run in triplicate.
The incubation buffer contained 50 mM tris, 120 mM NaCl, 5 mM KCl, 2 mM CaCl2, 2 mM MgCl2 and 0.1% bovine serum albumin, 10 μM quinolone and 0.1% ascorbic acid (prepared fresh daily). The buffer was adjusted to pH 7.4 with HCl.
(§3) After having been incubated at 25° C. for 60 minutes, the assay mixtures were filtered through a Whatman GF/B glass fiber filter under vacuum using a cell collecting device. The filters were transferred to scintillation viols using a filter transfer system. After 4 ml of Ultima Gold® (Packard) have been added, the samples were shaken for one hour and the radioactivity was then counted in a Beta-Counter (Packard, Tricarb 2000 or 2200CA). The cpm values were converted into dpm using a standard quench series and the program belonging to the instrument.
(§4) The inhibition curves were analyzed by means of iterative nonlinear regression analysis using the Statistical Analysis System (SAS) which is similar to the “LIGAND” program described by Munson and Rodbard.
(§5) The results of the receptro binding studies are expressed as receptor binding constants Ki(D2) and Ki(D3), respectively, as herein before described, and given in table 6.

[2] = target: T2, human dopamine D2L receptors (long isoform) (Homo sapiens, UniProt P14416); experiment: Dopamine D2L receptor binding, displacement of [125I] iodospiperone; conditions: membranes of HEK-293 cells stably expressing human D2L; 0.01 nM [125I] iodospiperone; 25° C., 60 minutes; read-out: Ki(D2)*
T2 construct: expressed in transfected cells
T2 sequence (P14416 whole entry, canonical isoform): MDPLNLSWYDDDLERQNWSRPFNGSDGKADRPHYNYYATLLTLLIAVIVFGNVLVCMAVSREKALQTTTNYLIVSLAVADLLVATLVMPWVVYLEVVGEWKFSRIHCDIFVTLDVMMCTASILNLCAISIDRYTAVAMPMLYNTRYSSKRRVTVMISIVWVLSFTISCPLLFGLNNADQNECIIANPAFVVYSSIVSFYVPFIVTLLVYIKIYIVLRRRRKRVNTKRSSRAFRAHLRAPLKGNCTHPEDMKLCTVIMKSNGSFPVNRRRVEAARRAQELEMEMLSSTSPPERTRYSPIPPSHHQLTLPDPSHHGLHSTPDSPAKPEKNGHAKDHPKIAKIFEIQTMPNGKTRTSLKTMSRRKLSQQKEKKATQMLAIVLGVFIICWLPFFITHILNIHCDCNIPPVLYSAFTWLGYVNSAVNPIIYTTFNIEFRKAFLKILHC
Experimental: as §1, §2
The incubation buffer contained 50 mM tris, 120 mM NaCl, 5 mM KCl, 2 mM CaCl2, 2 mM MgCl2 and 0.1% bovine serum albumin. The buffer was adjusted to pH 7.4 with HCl.
as §3, §4, §5

SMILES	Ki [1] [nM]	Ki(D2)*/Ki(D3)* [1]	Ki [2] [nM]
CCCN1CC[C@@H](c2ccc(NS(=O)(=O)c3ccc(-n4cccn4)cc3)cc2)C1 [Example 69, N-[4-((S)-1-Propyl-pyrrolidin-3-yl)-phenyl]-4-pyrazol-1-yl-benzenesulfonamide]	2.51	36	90.3
CCCN1CC[C@@H](c2ccc(NS(=O)(=O)c3ccc(-c4cnco4)cc3)cc2)C1 [Example 70, 4-Oxazol-5-yl-N-[4-((S)-1-propyl-pyrrolidin-3-yl)-phenyl]-benzenesulfonamide]	0.84	44	37.3
CCCN1CC[C@@H](c2ccccc2NS(=O)(=O)c2ccc(-c3cnco3)cc2)C1 [Example 71, 4-Oxazol-5-yl-N-[2-((S)-1-propyl-pyrrolidin-3-yl)-phenyl]-benzenesulfonamide]	4.79	11	52.3
CCCN1CC[C@@H](c2ccc(NS(=O)(=O)c3ccc(N4CCCC4=O)cc3)cc2)C1 [Example 72, 4-(2-Oxo-pyrrolidin-1-yl)-N-[4-((S)-1-propyl-pyrrolidin-3-yl)-Phenyl]-benzenesulfonamide]	35.1	13	473
CCCN1CC[C@@H](c2ccc(NS(=O)(=O)c3ccc(-c4ccco4)cc3)cc2)C1 [Example 73, 4-Furan-2-yl-N-[4-((S)-1-propyl-pyrrolidin-3-yl)-phenyl]-benzenesulfonamide]	0.61	–	6.73
CCCN1CC[C@@H](c2ccc(NS(=O)(=O)c3ccc(N4CCC4)cc3)cc2)C1 [Example 75, 4-Azetidin-1-yl-N-[4-((S)-1-propyl-pyrrolidin-3-yl)-phenyl]-benzenesulfonamide]	0.63	19	12.2
CCCN1CC[C@@H](c2ccc(NS(=O)(=O)c3ccc(C(C)C(F)F)cc3)cc2)C1 (stereo partly drawn) [Example 77, 4-(2,2-Difluoro-1-methyl-ethyl)-N-[4-((S)-1-propyl-pyrrolidin-3-yl)-phenyl]-benzenesulfonamide]	1.33	37	50
CCCN1CC[C@@H](c2ccc(NS(=O)(=O)c3ccc(C(C)C(F)(F)F)cc3)cc2)C1 (stereo partly drawn) [Example 78, N-[4-((S)-1-Propyl-pyrrolidin-3-yl)-phenyl]-4-(2,2,2-trifluoro-1-methyl-ethyl)benzenesulfonamide]	1.4	30	41.9
CCCN1CC[C@@H](c2ccc(NS(=O)(=O)c3cc4ccccc4o3)cc2)C1 [Example 79, Benzofuran-2-sulfonic acid [4-((S)-1-propyl-pyrrolidin-3-yl)-phenyl]-amide]	13.5	82	1110
CCCN1CC[C@@H](c2ccc(NS(=O)(=O)c3ccc(-c4ccno4)s3)cc2)C1 [Example 80, 5-Isoxazol-5-yl-thiophene-2-sulfonic acid [4-((S)-1-propyl-pyrrolidin-3-yl)-phenyl]-amide]	37.6	29	1100
CCCN1CC[C@@H](c2ccc(NS(=O)(=O)c3ccc(-c4ccon4)s3)cc2)C1 [Example 81, 5-Isoxazol-3-yl-thiophene-2-sulfonic acid [4-((S)-1-propyl-pyrrolidin-3-yl)-phenyl]-amide]	31.3	37	1160
CCCN1CC[C@@H](c2ccc(NS(=O)(=O)c3ccc(-c4cnco4)s3)cc2)C1 [Example 82, 5-Oxazol-5-yl-thiophene-2-sulfonic acid [4-((S)-1-propyl-pyrrolidin-3-yl)-phenyl]-amide]	5.59	78	437
CCN1CC[C@@H](c2ccc(NS(=O)(=O)c3ccc(C(C)C)cc3)cc2)C1 [Example 84, 4-Isopropyl-N-[4-((S)-1-ethyl-pyrrolidin-3-yl)-phenyl]-benzenesulfonamide]	0.95	17	16.2
CC(C)c1ccc(S(=O)(=O)Nc2ccc([C@@H]3CCN(C)C3)cc2)cc1 [Example 85, 4-Isopropyl-N-[4-((S)-1-methyl-pyrrolidin-3-yl)-phenyl]-benzenesulfonamide]	0.57	32	18.5
CCCN1CC[C@@H](c2ccc(NS(=O)(=O)c3ccc(CCF)cc3)cc2)C1.Cl [Example 86, 4-(2-Fluoro-ethyl)-N-[4-((S)-1-propyl-pyrrolidin-3-yl)-phenyl]-benzenesulfonamide, hydrochloride]	1.18	101	119
CCCN1CC[C@@H](c2ccc(NS(=O)(=O)c3ccc([C@H](C)CF)cc3)cc2)C1 [Example 87, 4-((S)-2-Fluoro-1-methyl-ethyl)-N-[4-((S)-1-propyl-pyrrolidin-3-yl)-phenyl]-benzenesulfonamide]	0.55	37	20.5
CCCN1CC[C@@H](c2ccc(NS(=O)(=O)c3ccc(CCC(F)(F)F)cc3)cc2)C1 [Example 88, N-[4-((S)-1-Propyl-pyrrolidin-3-yl)-phenyl]-4-(3,3,3-trifluoro-Propyl)-benzenesulfonamide]	0.92	45	41
CCCc1ccc(S(=O)(=O)Nc2ccc([C@@H]3CCN(CCC)C3)cc2)s1 [Example 89, 5-Propyl-thiophene-2-sulfonic acid [4-((S)-1-propyl-pyrrolidin-3-yl)-phenyl]-amide]	0.6	45	27
C=CCN1CC[C@H](c2ccc(NS(=O)(=O)c3ccc(C4CC4(F)F)cc3)cc2)C1 (stereo partly drawn) [Example 90, N-[4-((R)-1-Allyl-pyrrolidin-3-yl)-phenyl]-4-(2,2-difluoro-cyclopropyl)benzenesulfonamide]	11	25	280
CCCN1CC[C@@H](c2ccc(NS(=O)(=O)c3ccc(CCCF)cc3)cc2)C1 [Example 92, 4-(3-Fluoro-propyl)-N-[4-((S)-1-propyl-pyrrolidin-3-yl)-phenyl]-benzenesulfonamide]	0.61	28	17.3
CCCN1CC[C@@H](c2ccc(NS(=O)(=O)c3ccc([C@@H](C)CF)cc3)cc2)C1 [Example 93, 4-((R)-2-Fluoro-1-methyl-ethyl)-N-[4-((S)-1-propyl-pyrrolidin-3-yl)-phenyl]-benzenesulfonamide]	0.48	31	14.7
CC(C)c1ccc(S(=O)(=O)Nc2ccc([C@@H]3CCN(CC4CC4)C3)cc2)cc1 [Example 94, N-[4-((S)-1-Cyclopropylmethyl-pyrrolidin-3-yl)-phenyl]-4-isopropyl-benzenesulfonamide]	0.23	21	4.7
CCCN1CC[C@@H](c2ccc(NS(=O)(=O)c3ccc(C(CF)CF)cc3)cc2)C1 [Example 95, 4-(2-Fluoro-1-fluoromethyl-ethyl)-N-[4-((S)-1-propyl-pyrrolidin-3-yl)-phenyl]-benzenesulfonamide]	1.3	22	27.9
CC(C)c1ccc(S(=O)(=O)Nc2ccc([C@@H]3CCN(CCF)C3)cc2)cc1 [Example 96, N-{4-[(S)-1-(2-Fluoro-ethyl)-pyrrolidin-3-yl]-phenyl}-4-isopropyl-benzenesulfonamide]	0.83	70	57.8
C=CCN1CC[C@@H](c2ccc(NS(=O)(=O)c3ccc(OC(F)(F)F)cc3)cc2)C1 [Example 101, N-[4-((S)-1-Allyl-pyrrolidin-3-yl)-phenyl]-4-trifluoromethoxy-benzenesulfonamide]	3.7	73	268
O=S(=O)(Nc1ccc([C@@H]2CCNC2)cc1)c1ccc(OC(F)(F)F)cc1 [Example 102, N—((S)-4-Pyrrolidin-3-yl-phenyl)-4-trifluoromethoxy-benzenesulfonamide]	52	52	2710
CCCN1CC[C@@H](c2ccc(NS(=O)(=O)c3ccc(CC(F)(F)F)cc3)cc2)C1 [Example 103, N-[4-((S)-1-Propyl-pyrrolidin-3-yl)-phenyl]-4-(2,2,2-trifluoro-ethyl)benzenesulfonamide]	1.2	38	45
CCN1CC[C@@H](c2ccc(NS(=O)(=O)c3ccc(OC(F)(F)F)cc3)cc2)C1 [Example 104, N-[4-((S)-1-Ethyl-pyrrolidin-3-yl)-phenyl]-4-trifluoromethoxy-benzenesulfonamide]	8.3	43	352
CCCN1CC[C@@H](c2ccc(NS(=O)(=O)c3ccc(Cl)s3)cc2)C1 [Example 105, 5-Chloro-thiophene-2-sulfonic acid [4-((S)-1-propyl-pyrrolidin-3-yl)-phenyl]-amide]	6.1	51	309
